# Measured values taken from patent US20250026778A1 (TIUMBIO CO., LTD., priority 2021, published 2025).
# Target: T1, his-galectin-3 (Homo sapiens, UniProt P17931)
# T1 construct: purchased Abcam
# Assay: TR-FRET assay (in vitro galectin-3 binding inhibitory activity test)
# Conditions: Table 1; compound at 20 μM; 60 nM his-galectin-3, 15 nM biotin-ASF; read-out: % Inhibitory activity (at 20 μM)
# In short: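 Compound is premixed with his-galectin-3 (60 nM final), then biotin-ASF (15 nM), Tb anti-His antibody (2 nM) and streptavidin-d2 (20 nM) are added. After at least 3.5 hours at RT in HEPES/NaCl buffer with Tween 20 and BSA, TR-FRET is read at 615/665 nm. DMSO serves as the uninhibited control, ASF omission as background.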
# T1 sequence (P17931 whole entry): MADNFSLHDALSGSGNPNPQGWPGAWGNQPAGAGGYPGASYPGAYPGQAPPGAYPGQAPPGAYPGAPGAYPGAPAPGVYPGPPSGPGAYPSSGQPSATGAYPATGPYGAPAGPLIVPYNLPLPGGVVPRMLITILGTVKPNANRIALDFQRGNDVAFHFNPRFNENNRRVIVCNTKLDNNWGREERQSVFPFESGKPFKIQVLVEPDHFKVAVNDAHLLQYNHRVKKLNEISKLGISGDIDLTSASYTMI
row,SMILES,inhibition at 20 µM
1,"O=C(N[C@@H]1CCO[C@]12O[C@H](CO)[C@H](O)[C@H](n1cc(-c3cc(F)c(F)c(F)c3)nn1)[C@H]2O)c1cccc(Br)c1 [Compound A150, 3-bromo-N-((4R,5S,7R,8R,9S,10R)-8,10-dihydroxy-7-(hydroxymethyl)-9-(4-(3,4,5-trifluorophenyl)-1H-1,2,3-triazol-1-yl)-1,6-dioxaspiro[4.5]decan-4-yl)benzamide]",> 75%
2,"O=C(Cc1cccc(Br)c1)N[C@@H]1CCO[C@]12O[C@H](CO)[C@H](O)[C@H](n1cc(-c3cc(F)c(F)c(F)c3)nn1)[C@H]2O [Compound A151, 2-(3-bromophenyl)-N-((4R,5S,7R,8R,9S,10R)-8,10-dihydroxy-7-(hydroxymethyl)-9-(4-(3,4,5-trifluorophenyl)-1H-1,2,3-triazol-1-yl)-1,6-dioxaspiro[4.5]decan-4-yl)acetamide]",> 75%
3,O=C(N[C@@H]1CCO[C@]12O[C@H](CO)[C@H](O)[C@H](n1cc(-c3cc(F)c(F)c(F)c3)nn1)[C@H]2O)c1cccc(C(F)(F)F)c1 [Compound A152],50 to 75%

# Same assay, conditions: Table 2; compound at 20 μM; 60 nM his-galectin-3, 15 nM biotin-ASF; read-out: % Inhibitory activity (at 20 μM)
row,SMILES,inhibition at 20 µM
1,"OC[C@H]1O[C@]2(OCC[C@H]2n2ccnn2)[C@H](O)[C@@H](n2cc(-c3cc(F)c(F)c(F)c3)nn2)[C@H]1O [Compound A153, (4R,5S,7R,8R,9S,10R)-7-(hydroxymethyl)-4-(1H-1,2,3-triazol-1-yl)-9-(4-(3,4,5-trifluorophenyl)-1H-1,2,3-triazol-1-yl)-1,6-dioxaspiro[4.5]decane-8,10-diol]",< 25%
2,"O=C(N[C@@H]1CCO[C@]12O[C@H](CO)[C@H](O)[C@H](n1cc(-c3cc(F)c(F)c(F)c3)nn1)[C@H]2O)c1sc2ccccc2c1Cl [Compound A156, 3-chloro-N-((4R,5S,7R,8R,9S,10R)-8,10-dihydroxy-7-(hydroxymethyl)-9-(4-(3,4,5-trifluorophenyl)-1H-1,2,3-triazol-1-yl)-1,6-dioxaspiro[4.5]decan-4-yl)benzo[b]thiophene-2-carboxamide]",50 to 75%
3,"O=C(N[C@@H]1CCO[C@]12O[C@H](CO)[C@H](O)[C@H](n1cc(-c3cc(F)c(F)c(F)c3)nn1)[C@H]2O)c1csc2ccccc12 [Compound A157, N-((4R,5S,7R,8R,9S,10R)-8,10-dihydroxy-7-(hydroxymethyl)-9-(4-(3,4,5-trifluorophenyl)-1H-1,2,3-triazol-1-yl)-1,6-dioxaspiro[4.5]decan-4-yl)benzo[b]thiophene-3-carboxamide]",> 75%
4,"O=C(N[C@@H]1CCO[C@]12O[C@H](CO)[C@H](O)[C@H](n1cc(-c3cc(F)c(F)c(F)c3)nn1)[C@H]2O)c1cccc2c1CCCC2 [Compound A158, N-((4R,5S,7R,8R,9S,10R)-8,10-dihydroxy-7-(hydroxymethyl)-9-(4-(3,4,5-trifluorophenyl)-1H-1,2,3-triazol-1-yl)-1,6-dioxaspiro[4.5]decan-4-yl)-5,6,7,8-tetrahydronaphthalene-1-carboxamide]",50 to 75%
5,"O=C(N[C@@H]1CCO[C@]12O[C@H](CO)[C@H](O)[C@H](n1cc(-c3cc(F)c(F)c(F)c3)nn1)[C@H]2O)c1cc2cccc(Cl)c2s1 [Compound A159, 7-chloro-N-((4R,5S,7R,8R,9S,10R)-8,10-dihydroxy-7-(hydroxymethyl)-9-(4-(3,4,5-trifluorophenyl)-1H-1,2,3-triazol-1-yl)-1,6-dioxaspiro[4.5]decan-4-yl)benzo[b]thiophene-2-carboxamide]",50 to 75%
6,"O=C(N[C@@H]1CCO[C@]12O[C@H](CO)[C@H](O)[C@H](n1cc(-c3cc(F)c(F)c(F)c3)nn1)[C@H]2O)C1CCCc2ccccc21 (stereo partly drawn) [Compound A160, N-((4R,5S,7R,8R,9S,10R)-8,10-dihydroxy-7-(hydroxymethyl)-9-(4-(3,4,5-trifluorophenyl)-1H-1,2,3-triazol-1-yl)-1,6-dioxaspiro[4.5]decan-4-yl)-1,2,3,4-tetrahydronaphthalene-1-carboxamide]",50 to 75%
7,"O=C(N[C@@H]1CCO[C@]12O[C@H](CO)[C@H](O)[C@H](n1cc(-c3cc(F)c(F)c(F)c3)nn1)[C@H]2O)c1coc2ccccc12 [Compound A161, N-((4R,5S,7R,8R,9S,10R)-8,10-dihydroxy-7-(hydroxymethyl)-9-(4-(3,4,5-trifluorophenyl)-1H-1,2,3-triazol-1-yl)-1,6-dioxaspiro[4.5]decan-4-yl)benzofuran-3-carboxamide]",> 75%
8,"O=C(N[C@@H]1CCO[C@]12O[C@H](CO)[C@H](O)[C@H](n1cc(-c3cc(F)c(F)c(F)c3)nn1)[C@H]2O)c1cccc2c1CCC2 [Compound A162, N-((4R,5S,7R,8R,9S,10R)-8,10-dihydroxy-7-(hydroxymethyl)-9-(4-(3,4,5-trifluorophenyl)-1H-1,2,3-triazol-1-yl)-1,6-dioxaspiro[4.5]decan-4-yl)-2,3-dihydro-1H-indene-4-carboxamide]",50 to 75%
9,"O=C(N[C@@H]1CCO[C@]12O[C@H](CO)[C@H](O)[C@H](n1cc(-c3cc(F)c(F)c(F)c3)nn1)[C@H]2O)C1CCc2ccccc21 (stereo partly drawn) [Compound A163, N-((4R,5S,7R,8R,9S,10R)-8,10-dihydroxy-7-(hydroxymethyl)-9-(4-(3,4,5-trifluorophenyl)-1H-1,2,3-triazol-1-yl)-1,6-dioxaspiro[4.5]decan-4-yl)-2,3-dihydro-1H-indene-1-carboxamide]",50 to 75%
10,"O=C(N[C@@H]1CCO[C@]12O[C@H](CO)[C@H](O)[C@H](n1cc(-c3cc(F)c(F)c(F)c3)nn1)[C@H]2O)c1cccc(-c2ccccc2F)c1 [Compound A164, N-((4R,5S,7R,8R,9S,10R)-8,10-dihydroxy-7-(hydroxymethyl)-9-(4-(3,4,5-trifluorophenyl)-1H-1,2,3-triazol-1-yl)-1,6-dioxaspiro[4.5]decan-4-yl)-2′-fluoro-[1,1′-biphenyl]-3-carboxamide]",> 75%
11,"O=C(N[C@@H]1CCO[C@]12O[C@H](CO)[C@H](O)[C@H](n1cc(-c3cc(F)c(F)c(F)c3)nn1)[C@H]2O)c1cccc(-c2cccc(F)c2)c1 [Compound A165, N-((4R,5S,7R,8R,9S,10R)-8,10-dihydroxy-7-(hydroxymethyl)-9-(4-(3,4,5-trifluorophenyl)-1H-1,2,3-triazol-1-yl)-1,6-dioxaspiro[4.5]decan-4-yl)-3′-fluoro-[1,1′-biphenyl]-3-carboxamide]",50 to 75%

# Same assay, conditions: Table 3, found values; compound at 20 μM; 60 nM his-galectin-3, 15 nM biotin-ASF; read-out: % Inhibitory activity (at 20 μM)
row,SMILES,inhibition at 20 µM
1,"O=C(N[C@@H]1CCO[C@]12O[C@H](CO)[C@H](O)[C@H](n1cc(-c3cc(F)c(F)c(F)c3)nn1)[C@H]2O)c1cccc2c1CCC2 [Compound A162, N-((4R,5S,7R,8R,9S,10R)-8,10-dihydroxy-7-(hydroxymethyl)-9-(4-(3,4,5-trifluorophenyl)-1H-1,2,3-triazol-1-yl)-1,6-dioxaspiro[4.5]decan-4-yl)-2,3-dihydro-1H-indene-4-carboxamide]",69.9%

# Same assay, conditions: read-out: % Inhibitory activity (at 20 μM), Table 2; compound at 20 μM; 60 nM his-galectin-3, 15 nM biotin-ASF
row,SMILES,inhibition at 20 µM
1,"OC[C@H]1O[C@]2(OCC[C@H]2n2cc(-c3ccccc3)nn2)[C@H](O)[C@@H](n2cc(-c3cc(F)c(F)c(F)c3)nn2)[C@H]1O [Compound A154, (4R,5S,7R,8R,9S,10R)-7-(hydroxymethyl)-4-(4-phenyl-1H-1,2,3-triazol-1-yl)-9-(4-(3,4,5-trifluorophenyl)-1H-1,2,3-triazol-1-yl)-1,6-dioxaspiro[4.5]decane-8,10-diol]",25 to 50%
2,"COc1cccc(CN[C@@H]2CCO[C@]23O[C@H](CO)[C@H](O)[C@H](n2cc(-c4cc(F)c(F)c(F)c4)nn2)[C@H]3O)c1 [Compound A155, (4R,5S,7R,8R,9S,10R)-7-(hydroxymethyl)-4-((3-methoxylbenzyl)amino)-9-(4-(3,4,5-trifluorophenyl)-1H-1,2,3-triazol-1-yl)-1,6-dioxaspiro[4.5]decane-8,10-diol]",< 25%
